Measurements: PubChem BioAssay AID1963976 (Molecular Pharmacology Branch, DTP, NCI, 2024)

System: 435261-313-R-J1-PDC tumor spheroid viability
Assay: Anticancer human tumor 435261-313-R-J1-PDC patient-derived colon adenocarcinoma cell line growth inhibition [PI3K]
Conditions: spheroids with HUVEC and MSC; for IC50: curve of first compound; for viability, T/C: stronger effect = lower value
Summary of the method: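 Stroma-containing spheroids: tumor line, pooled-donor HUVEC, hMSC. Treatments: targeted agents with PI3K inhibitors. Dosing: clinically relevant, half-log spacing, 10 microM ceiling without known Cmax. Read-out: cell viability.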
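Also: spheroids exposed to compounds for 7 days.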

SMILES: CC1(C)CCC(Nc2ncc(C(F)(F)F)c(-c3c[nH]c4c(P(C)(C)=O)c(C#N)ccc34)n2)CN1 (configuration not stated) + Cc1nc(NC(=O)N2CCCC2C(N)=O)sc1-c1ccnc(C(C)(C)C(F)(F)F)c1
- IC50 (second compound 0.0316 µM): < 31.6 nM
- IC50 (second compound 0.1 µM): < 31.6 nM
- IC50 (second compound 0.316 µM): < 31.6 nM
- IC50 (second compound 1 µM): < 31.6 nM
- IC50 (second compound 3.16 µM): < 31.6 nM
- IC50 (second compound 10 µM): < 31.6 nM
- viability, T/C (second compound 0.0316 µM, first compound 0.0316 µM): 47.1%
- viability, T/C (second compound 0.0316 µM, first compound 0.1 µM): 45.9%
- viability, T/C (second compound 0.0316 µM, first compound 0.316 µM): 39.3%
- viability, T/C (second compound 0.0316 µM, first compound 1 µM): 38.1%
- viability, T/C (second compound 0.0316 µM, first compound 3.16 µM): 33.7%
- viability, T/C (second compound 0.0316 µM, first compound 10 µM): 0.64%
- viability, T/C (second compound 0.1 µM, first compound 0.0316 µM): 48.5%
- viability, T/C (second compound 0.1 µM, first compound 0.1 µM): 36.8%
- viability, T/C (second compound 0.1 µM, first compound 0.316 µM): 41.9%
- viability, T/C (second compound 0.1 µM, first compound 1 µM): 38.3%
- viability, T/C (second compound 0.1 µM, first compound 3.16 µM): 32.4%
- viability, T/C (second compound 0.1 µM, first compound 10 µM): 0.39%
- viability, T/C (second compound 0.316 µM, first compound 0.0316 µM): 35.5%
- viability, T/C (second compound 0.316 µM, first compound 0.1 µM): 33.5%
- viability, T/C (second compound 0.316 µM, first compound 0.316 µM): 27.3%
- viability, T/C (second compound 0.316 µM, first compound 1 µM): 29.3%
- viability, T/C (second compound 0.316 µM, first compound 3.16 µM): 25.4%
- viability, T/C (second compound 0.316 µM, first compound 10 µM): 0.33%
- viability, T/C (second compound 1 µM, first compound 0.0316 µM): 23.3%
- viability, T/C (second compound 1 µM, first compound 0.1 µM): 22.3%
- viability, T/C (second compound 1 µM, first compound 0.316 µM): 26.7%
- viability, T/C (second compound 1 µM, first compound 1 µM): 27.3%
- viability, T/C (second compound 1 µM, first compound 3.16 µM): 14.8%
- viability, T/C (second compound 1 µM, first compound 10 µM): 0.53%
- viability, T/C (second compound 3.16 µM, first compound 0.0316 µM): 14.8%
- viability, T/C (second compound 3.16 µM, first compound 0.1 µM): 17.2%
- viability, T/C (second compound 3.16 µM, first compound 0.316 µM): 14.7%
- viability, T/C (second compound 3.16 µM, first compound 1 µM): 14.2%
- viability, T/C (second compound 3.16 µM, first compound 3.16 µM): 6.95%
- viability, T/C (second compound 3.16 µM, first compound 10 µM): 0.84%
- viability, T/C (second compound 10 µM, first compound 0.0316 µM): 7.65%
- viability, T/C (second compound 10 µM, first compound 0.1 µM): 5.94%
- viability, T/C (second compound 10 µM, first compound 0.316 µM): 5.07%
- viability, T/C (second compound 10 µM, first compound 1 µM): 6.14%
- viability, T/C (second compound 10 µM, first compound 3.16 µM): 2.6%
- viability, T/C (second compound 10 µM, first compound 10 µM): 1.22%
